The source of these data is US20220055989A1, “CONDENSED PYRROLES AS NOVEL BROMODOMAIN INHIBITORS” (ALBERT LUDWING UNIVERSITÄT FREIBURG, priority 2018, published 2022).

Read-outs that look alike come from different tables or passages of the source.

The Kd is the concentration at which binding is half-saturated.

Assay type in all cases: binding
The target of experiment [1] is T1, BRD4(1) (Homo sapiens, UniProt O60885).
T1 construct: BRD4-BD1 was expressed and purified as described previously; made in house
Description: Isothermal titration calorimetry, dissociation constant KD BRD4(1). How it is done:
BRD4-BD1 was expressed and purified as described previously (Filippakopoulos et al, (2012), Cell 149(1): […]) with the exception of the final buffer for crystallization and ITC analysis (20 mM Hepes/NaOH pH 7.5, 150 mM NaCl). Crystals were grown in the presence of 3.5 M Na-Formate (pH 7.5) at a protein concentration of 10 mg/ml and a ligand concentration of 2 mM added directly to the protein prior to crystallization from a 100 mM stock solution in DMSO. Data were collected at 100K using either a Rigaku HF-007 rotating anode X-ray generator equipped with VariMaxHF optics and a Saturn944 CCD detector or a mar345 image plate respectively at λ=1.54179 Å or at the PXI beamline at the Swiss Light Source at λ=1.000 Å with a Pilatus detector. Data processing and reduction was done with iMOSFLM (Leslie AGW PH (2007), Evolving Methods for Macromolecular Crystallography 245, 41.51), POINTLESS, and SCALA (Kabsch W (2010) Xds. Acta crystallographica. Section D, Biological crystallography 66(Pt 2):125-132; Bruker (2008) SADABS, SAINT and XPREP (Bruker AXS Inc., Madison, Wis., USA); Collaborative Computational Project N (1994) The CCP4 suite: programs for protein crystallography, Acta crystallographica, Section D, Biological crystallography 50(Pt 5):760-763), or with XDS, XSCALE, XDSCONV (Evans P (2006), Scaling and assessment of data quality, Acta crystallographica, Section D, Biological crystallography 62(Pt 1):72-82), and XPREP (Evans P R (2011), An introduction to data reduction: space-group determination, scaling and intensity statistics, Acta crystallographica, Section D, Biological crystallography 67(Pt 4):282-292).
Data were obtained in discrete titration experiments with an injection volume of 12 μl per injection. Subsequently, the heats per injection were calculated as integrals and after normalization against the molar concentrations plotted against the molar ratio as implemented in Microcal Origin. Finally, data were fitted according to a single set of sites binding model with
The dissociation constant Kd, is commonly used to describe the affinity between a ligand L and a protein, i.e. how tightly a ligand binds to a particular protein. The dissociation constant has molar units which correspond to the concentration of ligand at which the binding site on a particular protein is half occupied, i.e. the concentration of the ligand at which the concentration of protein with ligand bound equals the concentration of protein with no ligand bound. The smaller the dissociation constant, the higher the affinity between ligand and protein.

The next experiment addresses T2, BRD2(2) (Homo sapiens, UniProt P25440).
T2 construct: T7 phage strains displaying bromodomains were grown in parallel; made in house; host or cells: T7 phage grown in an E. coli host derived from the BL21 strain
Put plainly: BROMOscan Kd determination BRD2(2). The protocol: Bromodomain profiling was carried out on the basis of BROMOscan™. This platform accounted for the indirect determination of the dissociation constants between 19 bromodomains and the compound of formula (13), by binding competition against a reference immobilized ligand. Compounds that bind the bromodomain prevent its binding to the immobilized ligand thus reducing the amount of protein captured. […] Hits are identified by measuring the amount of bromodomain captured in test versus control samples. Bromodomain assays for Kd determination: T7 phage strains displaying bromodomains were grown in parallel in 24-well blocks in an E. coli host derived from the BL21 strain. E. coli were grown to log-phase and infected with T7 phage from a frozen stock (multiplicity of infection=0.4) and incubated with shaking at 32° C. until lysis (90-150 minutes). The lysates were centrifuged (5,000×g) and filtered (0.2 μm) to remove cell debris. […] Kds were determined using an 11-point 3-fold compound dilution series with one DMSO control point. […] The bromodomain concentration in the eluates was measured by qPCR. […] Most Kds were determined using a compound top concentration=10,000 nM. […] Binding Constants (Kds): Binding constants (Kds) were calculated with a standard dose-response curve using the Hill equation: The Hill Slope was set to −1. […]

Experiment [2] concerns the target T1, BRD4(1). Put plainly: BROMOscan Kd determination BRD4(1). How it is done: (§1) Bromodomain profiling was carried out on the basis of BROMOscan™. This platform accounted for the indirect determination of the dissociation constants between 19 bromodomains and the compound of formula (13), by binding competition against a reference immobilized ligand. Compounds that bind the bromodomain prevent its binding to the immobilized ligand thus reducing the amount of protein captured. […] Hits are identified by measuring the amount of bromodomain captured in test versus control samples. Bromodomain assays for Kd determination: T7 phage strains displaying bromodomains were grown in parallel in 24-well blocks in an E. coli host derived from the BL21 strain. E. coli were grown to log-phase and infected with T7 phage from a frozen stock (multiplicity of infection=0.4) and incubated with shaking at 32° C. until lysis (90-150 minutes). The lysates were centrifuged (5,000×g) and filtered (0.2 μm) to remove cell debris. […] The liganded beads were blocked with excess biotin and washed with blocking buffer (SeaBlock (Pierce), 1% BSA, 0.05% Tween 20, 1 mM DTT) to remove unbound ligand and to reduce non-specific phage binding. […] Test compounds were prepared as 1000× stocks in 100% DMSO. Kds were determined using an 11-point 3-fold compound dilution series with one DMSO control point. All compounds for Kd measurements are distributed by acoustic transfer (non-contact dispensing) in 100% DMSO. The compounds were then diluted directly into the assays such that the final concentration of DMSO was 0.09%. All reactions performed in polypropylene 384-well plates. Each was a final volume of 0.02 ml. […] The bromodomain concentration in the eluates was measured by qPCR. […] All compounds for Kd measurements are distributed by acoustic transfer (non-contact dispensing) in 100% DMSO. The compounds were then diluted directly into the assays such that the final concentration of DMSO was 0.09%. Most Kds were determined using a compound top concentration=10,000 nM. If the initial Kd determined was <0.169 nM (the lowest concentration tested), the measurement was repeated with a serial dilution starting at a lower top concentration. Binding Constants (Kds): Binding constants (Kds) were calculated with a standard dose-response curve using the Hill equation: The Hill Slope was set to −1. Curves were fitted using a non-linear least square fit with the Levenberg-Marquardt algorithm.

A further experiment concerns the target T3, BRD7 (Homo sapiens, UniProt Q9NPI1).
T3 construct: T7 phage strains displaying bromodomains were grown; host or cells: T7 phage in E. coli derived from BL21
T3 sequence (Q9NPI1 131-235 limits assumed): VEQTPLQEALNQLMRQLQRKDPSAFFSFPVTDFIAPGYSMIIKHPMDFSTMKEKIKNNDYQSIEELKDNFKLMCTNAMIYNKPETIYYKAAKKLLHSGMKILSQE
Put plainly: BROMOscan Kd determination BRD7. The protocol:
as §1

For a further experiment, the target named is T4, BRD9 (Homo sapiens, UniProt Q9H8M2).
T4 construct: T7 phage strains displaying bromodomains were grown; host or cells: T7 phage in E. coli derived from BL21
T4 sequence (Q9H8M2 136-240 limits assumed): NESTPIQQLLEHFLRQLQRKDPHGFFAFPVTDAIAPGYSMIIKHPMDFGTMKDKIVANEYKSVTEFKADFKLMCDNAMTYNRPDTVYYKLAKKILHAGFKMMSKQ
Description: BROMOscan Kd determination BRD9. The protocol: as §1

In another experiment the target is T5, BRDT(1) (Homo sapiens, UniProt Q58F21).
T5 construct: T7 phage strains displaying bromodomains were grown; host or cells: T7 phage in E. coli derived from BL21
Description: BROMOscan Kd determination BRDT(1). How it is done:
as §1

A further experiment deals with T6, BRPF1 (Homo sapiens, UniProt P55201).
T6 construct: T7 phage strains displaying bromodomains were grown; host or cells: T7 phage in E. coli derived from BL21
T6 sequence (P55201 628-732 limits assumed): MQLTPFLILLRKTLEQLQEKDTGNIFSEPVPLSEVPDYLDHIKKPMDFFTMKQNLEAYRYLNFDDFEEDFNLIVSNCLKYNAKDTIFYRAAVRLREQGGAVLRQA
Put plainly: BROMOscan Kd determination BRPF1. How it is done:
as §1

In a further experiment the target is T7, BRPF1B (Homo sapiens, UniProt P55201).
T7 construct: dissociation constants KD for two bromodomains (BRD4(1) and BRPF1B)
T7 sequence (P55201 628-732 limits assumed): T6 sequence (P55201 628-732 limits assumed)
Description: Dissociation constant KD BRPF1B.

In the next experiment the target is T8, CECR2 (Homo sapiens, UniProt Q9BXF3).
T8 construct: T7 phage strains displaying bromodomains were grown; host or cells: T7 phage in E. coli derived from BL21
Description: BROMOscan Kd determination CECR2. The protocol:
as §1

T8 sequence (Q9BXF3 434-538 limits assumed): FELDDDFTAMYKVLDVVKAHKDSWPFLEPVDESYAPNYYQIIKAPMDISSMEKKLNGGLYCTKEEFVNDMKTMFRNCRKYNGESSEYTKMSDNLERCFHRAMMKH
T2 sequence (P25440 344-453 limits assumed): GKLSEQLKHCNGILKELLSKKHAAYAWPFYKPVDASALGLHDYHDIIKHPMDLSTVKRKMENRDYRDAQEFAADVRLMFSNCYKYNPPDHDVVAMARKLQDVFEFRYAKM

`COc1ccc(S(=O)(=O)N2CCOCC2)cc1NC(=O)c1[nH]c(C)c2c1CCCCC2=O` [Compound 13, N-(2-methoxy-5-(morpholinosulfonyl)phenyl)-3-methyl-4-oxo-2,4,5,6,7,8-hexahydrocyclohepta[c]pyrrole-1-carboxamide]: the Kd at BRD4(1) [1] stood at 77.8 nM; on BRD2(2), 290 nM; on BRD4(1) [2] it was 60 nM; on BRD7, 85 nM; at BRD9 it was 67 nM; on BRDT(1) it was 670 nM. Also, the Kd at BRPF1 was 520 nM.
With `CCCCc1[nH]c(-c2cc(N)ccc2Cl)c2c1C(=O)CCCC2` [Compound 27, 1-(5-Amino-2-chlorophenyl)-3-butyl-5,6,7,8-tetrahydrocyclohepta[c]pyrrol-4(2H)-one], the dissociation constant (Kd) on BRD4(1) [1] is more than 10000 nM; at BRPF1B, more than 10000 nM; on BRD4(1) [2] (Table 3 compound 27), more than 10000 nM; at BRD7 (Table 3 compound 27), more than 10000 nM; on BRD9 (Table 3 compound 27), 800 nM; at BRDT(1) (Table 3 compound 27), more than 10000 nM. Further, the dissociation constant (Kd) on BRPF1 (Table 3 compound 27) and at CECR2 (Table 3 compound 27) was more than 10000 nM each time.
`Cc1[nH]c(-c2cc(N)ccc2Cl)c2c1C(=O)CCCC2` [Compound 23]: the Kd on BRPF1B was 166 nM; on BRD2(2), 200 nM; at BRD4(1) [2], 250 nM; on BRD7, 430 nM; on BRD9, 67 nM; at BRDT(1), 240 nM. For the same molecule, the Kd on BRPF1 is 130 nM; at CECR2, 970 nM.
Regarding `CCCc1[nH]c(-c2cc(N)ccc2Cl)c2c1C(=O)CCCC2` [Compound 26, 1-(5-Amino-2-chlorophenyl)-3-propyl-5,6,7,8-tetrahydrocyclohepta[c]pyrrol-4(2H)-one], the Kd on BRD4(1) [1] was found to be 6900 nM; on BRPF1B it was 7000 nM; at BRD4(1) [2], 6900 nM; on BRD7, 1100 nM; on BRD9, 150 nM; at BRDT(1) it was 6100 nM. Moreover, the dissociation constant Kd on BRPF1 is 7000 nM; on CECR2 it was more than 10000 nM.
